Assay results from PubChem BioAssay AID1259407 (Chemical Carcinogenesis Research Information System (CCRIS), 2018).
The source made the active and inactive calls. No rule for the calls is given here.

Test system: CCRIS mutagenicity, Ames/micronucleus/aberration tests
Experiment: CCRIS mutagenicity studies
[1] = Test System: AMES SALMONELLA TYPHIMURIUM, Strain/Indicator: TA98, Metabolic Activation: NONE, Method: STANDARD PLATE
[2] = Test System: AMES SALMONELLA TYPHIMURIUM, Strain/Indicator: TA100, Metabolic Activation: NONE, Method: STANDARD PLATE
[3] = Test System: AMES SALMONELLA TYPHIMURIUM, Strain/Indicator: TA98, Metabolic Activation: RAT, LIVER, S-9, AROCLOR 1254, Method: STANDARD PLATE
[4] = Test System: AMES SALMONELLA TYPHIMURIUM, Strain/Indicator: TA100, Metabolic Activation: RAT, LIVER, S-9, AROCLOR 1254, Method: STANDARD PLATE

CCC[CH2][Sn]([CH2]CCC)([O]C(C)=O)[O]C(C)=O was tested, and the mutagenic call (Test System: AMES SALMONELLA TYPHIMURIUM, Strain/Indicator: TA98, Metabolic Activation: HAMSTER, LIVER, S-9, AROCLOR 1254 (10%), Method: PREINCUBATION) was “inactive; negative”, the mutagenic call (Test System: AMES SALMONELLA TYPHIMURIUM, Strain/Indicator: TA98, Metabolic Activation: NONE, Method: PREINCUBATION) was “inactive; negative” and the mutagenic call (Test System: AMES SALMONELLA TYPHIMURIUM, Strain/Indicator: TA98, Metabolic Activation: RAT, LIVER, S-9, AROCLOR 1254 (10%), Method: PREINCUBATION) was “inactive; negative”. The mutagenic call (Test System: AMES SALMONELLA TYPHIMURIUM, Strain/Indicator: TA100, Metabolic Activation: HAMSTER, LIVER, S-9, AROCLOR 1254 (10%), Method: PREINCUBATION) was “inactive; negative”, the mutagenic call (Test System: AMES SALMONELLA TYPHIMURIUM, Strain/Indicator: TA100, Metabolic Activation: NONE, Method: PREINCUBATION) was “inactive; negative” and the mutagenic call (Test System: AMES SALMONELLA TYPHIMURIUM, Strain/Indicator: TA100, Metabolic Activation: RAT, LIVER, S-9, AROCLOR 1254 (10%), Method: PREINCUBATION) was “inactive; negative”. For the same molecule, the mutagenic call (Test System: AMES SALMONELLA TYPHIMURIUM, Strain/Indicator: TA1535, Metabolic Activation: HAMSTER, LIVER, S-9, AROCLOR 1254 (10%), Method: PREINCUBATION) was “inactive; negative”, the mutagenic call (Test System: AMES SALMONELLA TYPHIMURIUM, Strain/Indicator: TA1535, Metabolic Activation: NONE, Method: PREINCUBATION) was “inactive; negative” and the mutagenic call (Test System: AMES SALMONELLA TYPHIMURIUM, Strain/Indicator: TA1535, Metabolic Activation: RAT, LIVER, S-9, AROCLOR 1254 (10%), Method: PREINCUBATION) was “inactive; negative”. The mutagenic call (Test System: AMES SALMONELLA TYPHIMURIUM, Strain/Indicator: TA1537, Metabolic Activation: HAMSTER, LIVER, S-9, AROCLOR 1254 (10%), Method: PREINCUBATION) was “inactive; negative”, the mutagenic call (Test System: AMES SALMONELLA TYPHIMURIUM, Strain/Indicator: TA1537, Metabolic Activation: NONE, Method: PREINCUBATION) was “inactive; negative” and the mutagenic call (Test System: AMES SALMONELLA TYPHIMURIUM, Strain/Indicator: TA1537, Metabolic Activation: RAT, LIVER, S-9, AROCLOR 1254 (10%), Method: PREINCUBATION) was “inactive; negative”.
For CC(=O)O[C@@H]1C(=O)O[C@H]2[C@@H]1OC(=O)[C@@H]2OC(C)=O, the mutagenic call [1] was “inactive; negative”, the mutagenic call (Test System: AMES SALMONELLA TYPHIMURIUM, Strain/Indicator: TA98, Metabolic Activation: S-9, Method: STANDARD PLATE) was “inactive; negative” and the mutagenic call [2] was “inactive; negative”. For the same molecule, the mutagenic call (Test System: AMES SALMONELLA TYPHIMURIUM, Strain/Indicator: TA100, Metabolic Activation: S-9, Method: STANDARD PLATE) was “inactive; negative”, the mutagenic call (Test System: AMES SALMONELLA TYPHIMURIUM, Strain/Indicator: TA1537, Metabolic Activation: S-9, Method: STANDARD PLATE) was “inactive; negative” and the mutagenic call (Test System: E. COLI, Strain/Indicator: WP2 (HCR), Metabolic Activation: NONE, Method: STANDARD PLATE) was “inactive; negative”. For the same molecule, the mutagenic call (Test System: E. COLI, Strain/Indicator: WP2 (HCR), Metabolic Activation: S-9, Method: STANDARD PLATE) was “inactive; negative”.
In the case of C=CC1(C)OC(=O)N(c2cc(Cl)cc(Cl)c2)C1=O (configuration not stated), the mutagenic call (End Point: IN VITRO MICRONUCLEUS, Test System: HUMAN HEPATOMA CELLS HEPG2, Metabolic Activation: NONE) is reported as “inactive; negative; authors report a slight increase but not statistically significant”.
In the case of Nc1nc2c(ncn2CCC(CO)CO)c(=O)[nH]1, the mutagenic call (End Point: IN VITRO CHROMOSOMAL ABERRATIONS, Test System: CHO CELLS (CHO-HSVTK), Metabolic Activation: NONE) is reported as “active; positive (pulverized chromosome and condensation defects); concentration chosen”.
For CC[C@H]1OC(=O)[C@H](C)[C@@H](O[C@H]2C[C@@](C)(OC)[C@@H](O)[C@H](C)O2)[C@H](C)[C@@H](O[C@@H]2O[C@H](C)C[C@H](N(C)C)[C@H]2O)[C@](C)(OC)C[C@@H](C)C(=O)[C@H](C)[C@@H](O)[C@]1(C)O, the mutagenic call (End Point: AMES SALMONELLA TYPHIMURIUM, Test System: TA98, Metabolic Activation: NONE, Method: STANDARD PLATE) was “inactive; negative” and the mutagenic call (End Point: AMES SALMONELLA TYPHIMURIUM, Test System: TA100, Metabolic Activation: NONE, Method: STANDARD PLATE) was “inactive; negative”.
With Nc1cccc([N+](=O)[O-])c1O the mutagenic call [1] was “inactive; negative”, the mutagenic call [3] was “inactive; negative” and the mutagenic call [2] was “inactive; negative”. For the same molecule, the mutagenic call [4] was “inactive; negative”, the mutagenic call (Test System: AMES SALMONELLA TYPHIMURIUM, Strain/Indicator: TA1535, Metabolic Activation: NONE, Method: STANDARD PLATE) was “inactive; negative” and the mutagenic call (Test System: AMES SALMONELLA TYPHIMURIUM, Strain/Indicator: TA1535, Metabolic Activation: RAT, LIVER, S-9, AROCLOR 1254, Method: STANDARD PLATE) was “inactive; negative”. For the same molecule, the mutagenic call (Test System: AMES SALMONELLA TYPHIMURIUM, Strain/Indicator: TA1537, Metabolic Activation: NONE, Method: STANDARD PLATE) was “inactive; negative”, the mutagenic call (Test System: AMES SALMONELLA TYPHIMURIUM, Strain/Indicator: TA1537, Metabolic Activation: RAT, LIVER, S-9, AROCLOR 1254, Method: STANDARD PLATE) was “inactive; negative” and the mutagenic call (Test System: AMES SALMONELLA TYPHIMURIUM, Strain/Indicator: TA1538, Metabolic Activation: NONE, Method: STANDARD PLATE) was “inactive; negative”. For the same molecule, the mutagenic call (Test System: AMES SALMONELLA TYPHIMURIUM, Strain/Indicator: TA1538, Metabolic Activation: RAT, LIVER, S-9, AROCLOR 1254, Method: STANDARD PLATE) was “inactive; negative”.
With Nc1ccc(Cl)c(Cl)c1Cl the mutagenic call [1] was “inactive; negative”, the mutagenic call [3] was “inactive; negative” and the mutagenic call [2] was “inactive; negative”. For the same molecule, the mutagenic call [4] was “inactive; negative”.
